In paper PMC10303200 (ACS Central Science, 2023):
“And” between values parts separate entries of the source, which are not always exact repeats. Equal values may be shown once. Read-outs that look alike come from different tables or passages of the source.

Assays:
[1] = molecular target: T1, fCD22 (fragment of human Siglec 2) (Homo sapiens, UniProt P20273); experiment: COIN-nMS affinity measurement; type: binding
T1 construct: A fragment of human Siglec 2 (fCD22, residue 1–332, MW 37.4 kDa); made in house; host or cells: wild-type CHO cells
T1 sequence (P20273 20-332): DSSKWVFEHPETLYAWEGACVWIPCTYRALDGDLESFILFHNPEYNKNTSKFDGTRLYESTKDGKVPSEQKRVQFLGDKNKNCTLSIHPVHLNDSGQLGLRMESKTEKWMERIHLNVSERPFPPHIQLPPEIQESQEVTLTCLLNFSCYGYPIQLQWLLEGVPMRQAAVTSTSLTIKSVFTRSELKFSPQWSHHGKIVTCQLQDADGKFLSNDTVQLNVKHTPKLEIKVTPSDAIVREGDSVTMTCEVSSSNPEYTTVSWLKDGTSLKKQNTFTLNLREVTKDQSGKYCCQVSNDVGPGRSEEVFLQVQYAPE

[2] = molecular target: T1, fCD22 (fragment of human Siglec 2); conditions: literature value; ref S3; cited from earlier work
[3] = molecular target: T1, fCD22 (fragment of human Siglec 2); experiment: direct nMS affinity measurement; type: binding; conditions: individual glycan; ammonium acetate 200 mM, pH 6.9
GAL-3C [4] = molecular target: T2, GAL-3C (Homo sapiens, UniProt P17931); experiment: direct nMS (ESI-MS) affinity measurement at known concentrations; type: binding; design: human Galectin-3 (GAL-3C, residues 107–250, molecular weight (MW) 16 327 Da); key: NB: No binding detected; conditions: glycans present as a mixture (G2, G5-G13); pH 6.9
T2 sequence (P17931 107-250): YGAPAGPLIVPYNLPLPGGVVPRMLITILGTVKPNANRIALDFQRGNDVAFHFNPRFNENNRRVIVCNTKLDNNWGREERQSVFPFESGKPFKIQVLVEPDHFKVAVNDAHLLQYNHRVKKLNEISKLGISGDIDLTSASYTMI

GAL-7 homodimer [5] = molecular target: T3, GAL-7 homodimer (Homo sapiens, UniProt P47929); experiment: COIN-nMS affinity measurement; type: binding; design: key: NB: No binding detected; conditions: glycans present as a mixture (G2, G5-G13); average of eight measurements; pH 6.9
T3 construct: made in house
T3 sequence (P47929 whole entry): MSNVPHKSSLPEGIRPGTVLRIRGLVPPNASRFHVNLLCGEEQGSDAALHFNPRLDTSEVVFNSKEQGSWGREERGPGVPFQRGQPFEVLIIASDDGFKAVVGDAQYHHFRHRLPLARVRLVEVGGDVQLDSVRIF

GAL-7 homodimer [6] = molecular target: T3, GAL-7 homodimer; experiment: direct nMS affinity measurement; type: binding; design: key: NB: No binding detected; conditions: glycans present as a mixture (G2, G5-G13); pH 6.9
GAL-3C [7] = molecular target: T2, GAL-3C; experiment: COIN-nMS affinity measurement; type: binding; design: human Galectin-3 (GAL-3C, residues 107–250, molecular weight (MW) 16 327 Da); key: NB: No binding detected; conditions: glycans present as a mixture (G2, G5-G13); average of eight measurements; pH 6.9
GAL-3C [8] = molecular target: T2, GAL-3C; experiment: COIN-nMS, global fit over several glycan concentrations, 200 mM ammonium acetate, pH 6.9, 25 °C.; type: binding; design: gene LGALS3; C-terminal carbohydrate recognition domain fragment, residues 107-250; conditions: SD; read-out: Kd (COIN-nMS, global fit), Table S2
DC-SIGN CRD [9] = molecular target: T4, DC-SIGN CRD (Homo sapiens, UniProt Q9NNX6); experiment: COIN-nMS (submicron emitters) with a mixture of ten glycans (G2, G5, G10, G14-G20), 200 mM ammonium acetate with 2.5 mM calcium salt, pH 7.4.; type: binding; design: gene CD209; carbohydrate recognition domain, residues 250-404, MW 17 794 Da; conditions: SD, n = 6; read-out: Kd (COIN-nMS), Table S5
T4 sequence (Q9NNX6 250-404): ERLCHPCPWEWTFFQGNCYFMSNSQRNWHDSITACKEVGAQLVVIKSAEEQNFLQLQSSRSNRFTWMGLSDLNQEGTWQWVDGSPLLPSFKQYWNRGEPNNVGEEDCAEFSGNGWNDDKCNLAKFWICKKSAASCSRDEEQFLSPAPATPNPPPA

GAL-7 [10] = molecular target: T5, GAL-7 (Homo sapiens, UniProt P47929); experiment: COIN-nMS of the GAL-7 homodimer with a mixture of ten glycans (G2, G5-G13), 200 mM ammonium acetate, pH 6.9.; type: binding; conditions: SD, n = 8; read-out: Kd (COIN-nMS), Table S4
T5 construct: gene LGALS7; homodimer (monomer MW 14.94 kDa)
T5 sequence (P47929 whole entry): as the sequence (P47929 whole entry) above

GAL-7 [11] = molecular target: T5, GAL-7; experiment: Direct native ESI-MS of the GAL-7 homodimer with a mixture of ten glycans (G2, G5-G13), 200 mM ammonium acetate, pH 6.9.; type: binding; conditions: SD, n = 8; read-out: Kd (nMS), Table S4
DC-SIGN CRD [12] = molecular target: T4, DC-SIGN CRD; experiment: Direct native ESI-MS (submicron emitters) with a mixture of ten glycans (G2, G5, G10, G14-G20), 200 mM ammonium acetate with 2.5 mM calcium salt, pH 7.4.; type: binding; design: gene CD209; carbohydrate recognition domain, residues 250-404, MW 17 794 Da; conditions: SD, n = 6; read-out: Kd (nMS), Table S5
GAL-3C [13] = molecular target: T2, GAL-3C; experiment: Literature reference values quoted in the results table, conditions not restated.; type: binding; design: gene LGALS3; C-terminal carbohydrate recognition domain fragment, residues 107-250; conditions: SD; read-out: Kd (Literature), Table S2; cited from earlier work
GAL-3C [14] = molecular target: T2, GAL-3C; experiment: Direct native ESI-MS with a mixture of ten glycans (G2, G5-G13), 200 mM ammonium acetate, pH 6.9.; type: binding; design: gene LGALS3; C-terminal carbohydrate recognition domain fragment, residues 107-250; conditions: SD, n = 8; read-out: Kd (nMS), Table S3
GAL-3C [15] = molecular target: T2, GAL-3C; experiment: Direct native ESI-MS at known concentrations with single glycans, 200 mM ammonium acetate, pH 6.9, 25 °C.; type: binding; design: gene LGALS3; C-terminal carbohydrate recognition domain fragment, residues 107-250; conditions: SD; read-out: Kd (nMS), Table S2
GAL-3C [16] = molecular target: T2, GAL-3C; experiment: COIN-nMS with a mixture of ten glycans (G2, G5-G13), 200 mM ammonium acetate, pH 6.9.; type: binding; design: gene LGALS3; C-terminal carbohydrate recognition domain fragment, residues 107-250; conditions: SD, n = 8; read-out: Kd (COIN-nMS), Table S3
GAL-3C [17] = molecular target: T2, GAL-3C; experiment: COIN-nMS (slow mixing in nanoESI emitter, fit of eq 12) at one glycan concentration, 200 mM ammonium acetate, pH 6.9, 25 °C.; type: binding; design: gene LGALS3; C-terminal carbohydrate recognition domain fragment, residues 107-250; conditions: SD; read-out: Kd (COIN-nMS, individual experiments), Table S2
MAA [18] = molecular target: T6, MAA; experiment: COIN-CaR-nMS (collisional release of bound glycan, fit of eq 13) with single purified glycans, 200 mM ammonium acetate, pH 6.9.; type: binding; conditions: SD; read-out: Kd (COIN-CaR-nMS), Table S6
T6 construct: commercial lectin mixture

MAA [19] = molecular target: T6, MAA; experiment: Isothermal titration calorimetry, 200 mM ammonium acetate, pH 6.8-6.9, 25 °C.; type: binding; conditions: SD; read-out: Kd (Literature), Table S6, determined by ITC
Sig7-Fc = Sig7-Fc (Homo sapiens, UniProt Q9Y286); experiment: COIN-CaR-nMS with purified oligosaccharides listed beside the library glycans, 200 mM ammonium acetate, pH 6.9.; type: binding; design: gene SIGLEC7; residues 1-345, human IgG1 Fc fusion and C-terminal His6, from CHO cells, MW 150 kDa; conditions: SD; read-out: Kd, purified oligosaccharides in Tables S12, S13, S18, S19
Sequence of Sig7-Fc (Q9Y286 1-345): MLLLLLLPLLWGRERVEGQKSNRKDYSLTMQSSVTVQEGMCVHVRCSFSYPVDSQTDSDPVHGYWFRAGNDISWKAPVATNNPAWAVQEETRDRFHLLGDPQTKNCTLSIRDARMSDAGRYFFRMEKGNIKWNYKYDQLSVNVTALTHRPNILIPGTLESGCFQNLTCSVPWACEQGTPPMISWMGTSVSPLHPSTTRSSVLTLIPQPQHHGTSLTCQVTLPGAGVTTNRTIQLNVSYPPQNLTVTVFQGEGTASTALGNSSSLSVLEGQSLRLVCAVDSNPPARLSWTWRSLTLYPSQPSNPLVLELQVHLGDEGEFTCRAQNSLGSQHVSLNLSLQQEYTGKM

MAA [20] = molecular target: T6, MAA; experiment: as above; type: binding; conditions: SD; read-out: Kd, purified oligosaccharides in Tables S12, S13, S18, S19

`CC(=O)NC1C(O)OC(CO)C(OC2OC(CO)C(OC3OC(COC4OC(CO)C(O)C(O)C4OC4OC(CO)C(OC5OC(COC6(C(=O)O)CC(O)C(NC(C)=O)C(C(O)C(O)CO)O6)C(O)C(O)C5O)C(O)C4NC(C)=O)C(O)C(OC4OC(CO)C(O)C(O)C4OC4OC(CO)C(OC5OC(COC6(C(=O)O)CC(O)C(NC(C)=O)C(C(O)C(O)CO)O6)C(O)C(O)C5O)C(O)C4NC(C)=O)C3O)C(O)C2NC(C)=O)C1O` [Glycan G4, [α-D-Neu5Ac-(2→6)-β-D-Gal-(1→4)-β-D-GlcNAc-(1→2)-α-D-Man-(1→3)]-[α-D-Neu5Ac-(2→6)-β-D-Gal-(1→4)-β-D-GlcNAc-(1→2)-α-D-Man-(1→6)]-β-D-Man(1→4)-β-D-GlcNAc-(1→4)-D-GlcNAc] showed a Kd ([1]; global fit of data sets at 30, 50, 75 µM glycan, read-out: Kd (COIN-nMS, global fit)) of 23.5 ± 1.4 µM, a Kd ([1]; glycan concentration 30 µM, pH 6.9, read-out: Kd (COIN-nMS, individual experiments)) of 25.4 ± 2.2 µM and a Kd ([1]; glycan concentration 50 µM, pH 6.9, read-out: Kd (COIN-nMS, individual experiments)) of 37.5 ± 0.5 µM. The Kd ([1]; glycan concentration 75 µM, pH 6.9, read-out: Kd (COIN-nMS, individual experiments)) was 23.4 ± 0.7 µM, the Kd [2] was 13.1 ± 0.6 µM and the Kd [3] was 13.1 ± 0.6 µM.
With “β-D-Gal(1→3)-[α-L-Fuc(1→4)]-β-D-GlcNAc(1→3)-β-D-Gal(1→4)-[α-L-Fuc(1→3)]-β-D-Glc [Glycan G11]” the “Kd (nMS)” value (GAL-3C [4]) was “NB”, the “Kd (COIN-nMS)” value (GAL-7 homodimer [5]) was “NB and do not bind” and the “Kd (nMS)” value (GAL-7 homodimer [6]) was “NB”. The “Kd (COIN-nMS)” value (GAL-3C [7]) was “NB and do not bind”.
Compound `C[C@@H]1O[C@@H](O[C@H]2[C@H](O[C@H]3[C@H](O)[C@@H](O)C(O)O[C@@H]3CO)O[C@H](CO)[C@H](O)[C@@H]2O)[C@@H](O)[C@H](O)[C@@H]1O` (stereo partly drawn) [G2, α-L-Fuc-(1→2)-β-D-Gal-(1→4)-D-Glc (2'-fucosyllactose)] has a Kd (GAL-3C [8]) of 23.2 µM, a Kd (DC-SIGN CRD [9]) of 660 µM and a Kd (GAL-7 [10]) of 241 µM. The Kd (GAL-7 [11]) was 237 µM, the Kd (DC-SIGN CRD [12]) was 2100 µM and the Kd (GAL-3C [13]) was 47.6 µM. It also gave a Kd (GAL-3C [14]) of 166 µM, a Kd (GAL-3C [15]) of 26.6 µM and a Kd (GAL-3C [16]) of 156 µM. For the same compound, the Kd (GAL-3C [17]) was 27 µM and 24.8 µM and 28 µM.
Work on `CC(=O)N[C@H]1[C@H]([C@H](O)[C@H](O)CO)O[C@@](O[C@H]2[C@@H](O)[C@@H](CO)O[C@@H](O[C@H]3[C@H](O)[C@@H](O)C(O)O[C@@H]3CO)[C@@H]2O)(C(=O)O)C[C@@H]1O` (stereo partly drawn) [G22, 3SL, 3'-sialyllactose, α-D-Neu5Ac-(2→3)-β-D-Gal-(1→4)-D-Glc] yielded a Kd (MAA [18]) of 3.5 µM, a Kd (MAA [19]) of 3.6 µM and a Kd (Sig7-Fc) of 277 µM.
`CC(=O)N[C@H]1[C@H]([C@H](O)[C@H](O)CO)O[C@@](O[C@H]2[C@@H](O)[C@@H](CO)O[C@@H](O[C@H]3[C@H](O)[C@@H](NC(C)=O)C(O)O[C@@H]3CO)[C@@H]2O)(C(=O)O)C[C@@H]1O` (stereo partly drawn) [G25, 3SLN, α-D-Neu5Ac-(2→3)-β-D-Gal-(1→4)-D-GlcNAc] showed a Kd (Sig7-Fc) of 267 µM and a Kd (MAA [20]) of 2.14 µM.
